Assay results taken from patent publication US20250304526A1, “HIGH AND MULTIPLE REDOX POTENTIAL, STABLE, AND SOLUBLE BIS-DIARYLAMINE DERIVATIVES AND USES THEREOF” (University of Kentucky Research Foundation, priority 2024, published 2025).
≈ marks a conversion by molar mass, not a printed value. Like-named read-outs stand apart in the source and are kept apart here.

Columns and labels:
Type in all cases: physicochemical
[1] = Solubility determination in pure acetonitrile by mass measurement
Procedure: The solubility of the compounds in pure acetonitrile was determined by the mass measurement method described previously. Saturated solutions of each compound were prepared and filtered to remove any undissolved material. Afterwards, 3 mL of each solution were taken and added to previously weighed vials (the measurement was repeated three times for each solution, i.e. 3 vials for each solution). The vials were then stored open in a nitrogen-filled glove box to allow the slow evaporation of the solvent. After 10 days, acetonitrile was evaporated from all vials, leaving only the previously dissolved solid. The vials were then re-weighed and the mass of the solid was determined by subtracting the mass of the respective empty vial. The concentration of the compound was calculated from the mass of the dissolved solid and the volume of the sample placed into the vial.
The solubilities of 1-4 were examined in pure CH3CN using the mass measurement method.

[2] = Cyclic voltammetry (redox potentials, diffusion coefficients); settings: for Redox peak of radical cation formation (first oxidation potential): 1 mM, 0.1 M TBAPF6 in CH3CN, glassy carbon; for Kc (comproportionation constant): calculated from ΔE at 298 K
Procedure: CV measurements were carried out in a nitrogen-filled glovebox at ambient glovebox temperature using a VSP-300 potentiostat (BioLogic). Unless otherwise indicated, the CVs were recorded in 0.2 M TBAPF6/CH3CN as electrolyte with 3 mm diameter glassy carbon (CH Instruments, Inc.) as the working electrode. A non-aqueous Ag/Ag^+ (silver wire immersed in CH3CN containing 0.1 M TBABF4 and 0.01 M AgBF4) electrode was used as the reference electrode, and a Pt wire (CH Instruments, Inc.) as the counter electrode. Before each measurement, glassy carbon electrodes were mechanically polished with an aqueous slurry of graded alumina (0.05 μm), then ultra-sonicated in water then acetone for 1 min each. Voltammograms were recorded at a scan rate of 100 mV·s^−1. Ferrocene was used as an internal reference and the oxidation potentials were calibrated with respect to ferrocene/ferrocenium (Cp2Fe^0/+) redox couple. The diffusion coefficients were determined using Randles-Sevick equation: […]
with R being the perfect gas constant (8.314 J·mol^−1·K^−1), F the Faraday's constant (96485 C·mol^−1), T the absolute temperature (˜298 K), ip is the peak current intensity (in A), n the number of transferred electrons, A the area of the electrode (cm^2), D the diffusion coefficient (cm^2·s^−1), v the scan rate (V·s^−1) and c the concentration (mol·cm^−3). Data obtained from voltammograms at scan rates of 25, 50, 75, 100, 200, 300 and 400 mV·s^−1 were used for the calculation of diffusion coefficients.
Electrochemical characterization of 1-4 was achieved by cyclic voltammetry (CV) in 0.1 M TBAPF6 in CH3CN. Glassy carbon was used as the working electrode and 1 mM of active materials were used. All derivatives featured two distinct one-electron oxidation waves upon voltage sweep. The first and the second waves correspond to the sequential neutral to radical-cation and radical-cation to dication transformations, respectively. These features are in line with the presence of two redox centers in these molecules. The redox peaks associated with the radical cation formation for molecules 1 and 2 are centered at 0 and 0.17 V vs Fc^+/Fc, respectively (FIG. 4). These values are in line with the data reported in literature for the same molecules.^8 Note that in previous literature the electrochemistry is reported in 0.1 M TBAClO4 in dichloromethane and reported versus a Ag/AgCl reference electrode. The Fc^+/Fc couple has a redox potential at 0.403 V vs SCE and 0.44 V vs Ag/AgCl reference electrode. On the other hand, molecules 3 and 4 feature the radical cation transformation redox peaks at 0.41 and 0.53 V vs Fc^+/Fc, respectively (FIG. 4).
In fact, these molecules belong to a class of compounds known as mixed-valence (MV) compounds. Mixed valency is a term that refers to a chemical species, whether organic or inorganic, with two or more redox centers that have different oxidation stated. This concept was first introduced in 1915 by Hofmann and Hoeschele. MV species are usually intensely colored due to the unique electronic transitions associated with intervalence electron transfer. CV is a useful technique in studying MV species since it provides insights on how stable one ionic species will be with respect to disproportionation, using the comproportionation constant (Kc). Kc is used to measure the ease of isolating the radical-cation rather than obtaining a mixture of neutral, radical-cationic, and dicationic species. Kc can be calculated from the ΔE which is the value of the redox potential difference between the first and the second oxidation events. Kc is a quantity used to evaluate the electronic communication between two redox centers in mixed-valence species. Large comproportionation constant, i.e. a substantial value of ΔE, is a crucial requirement for the isolation of mixed-valence species separately of other oxidation states of the species. Kc is defined as: […]

[3] = UV-NIR spectroscopy of radical cations (IVCT band, Hush analysis); settings: for ν1/2, Hush (Hush-theory predicted band width): predicted from νmax at 298 K; for ν1/2 (measured IVCT band width) / νmax (IVCT band): radical cation, 0.5 mM in pure CH3CN
Procedure: In an argon-filled glove box, 0.5 mM solutions of neutral and radical cation were prepared in acetonitrile and pipetted into 1 mm path length optical glass cuvettes. The choice of this path length of cuvette is dictated by the aim to prevent the UV-vis detector saturation of the intensely colored cationic species. All samples destined to UV-vis stability monitoring contained 0.1 M TBAPF6 whereas UV-NIR samples were in pure CH3CN. Solutions were added to the cuvettes inside an argon filled glovebox, sealed with a Teflon screw cap and removed from the glovebox for spectral analysis. UV-vis spectra were collected in an Agilent 8453 diode-array spectrometer. Spectra were collected at 0, 1, 3, 4, 5, 6 and 24 h after dissolution.
The synthesized cations were also characterized using UV-NIR spectroscopy (FIG. 3). From FIG. 3 it can be clearly seen that the spectra of the charged forms change dramatically as compared to the neutral forms. […] These values match perfectly to those reported by Lambert and Noll for the same molecules using spectroelectrochemistry in 0.1 M TBAPF6 in dichloromethane.^21
Class II or III assignment is based on electronic spectroscopy; the broadness and line shape of the IVCT transition is analyzed in this case. Analysis of the line broadness and line shape of the IVCT band is also used to determine whether a mixed-valence species belongs to Class II or III. Hush theory provides a relationship that simplifies at 298 K to:
where vmax is the maximum absorption of the IVCT band given in […].

[4] = organic solvent or mixture, thermodynamic from solid, read-out: Solubility

Row | solubility [1] [mM] | solubility [1, 4] [mM] | Redox peak of radical cation formation (first oxidation potential) [2] [V vs Fc^+/Fc] | Kc (comproportionation constant) [2] | ν1/2, Hush (Hush-theory predicted band width) [3] [cm⁻¹] | ν1/2 (measured IVCT band width) [3] [cm⁻¹] | νmax (IVCT band) [3] [cm⁻¹] | νmax (IVCT band) ([3]; listed as 1^⋅) [cm⁻¹] | SMILES
1 | 8.76 (≈ 4670 µg/mL) | 9 (≈ 4790 µg/mL) | 0 | 3 × 10^6 | 4756 | 3846 | 9790 | ~10000 | COc1ccc(N(c2ccc(OC)cc2)c2ccc(N(c3ccc(OC)cc3)c3ccc(OC)cc3)cc2)cc1 [1^+⋅]
2 |  | 3.5 (≈ 2130 µg/mL) | 0.17 | 5 × 10^2 | 4740 | 3524 | 9728 |  | COc1ccc(N(c2ccc(OC)cc2)c2ccc(-c3ccc(N(c4ccc(OC)cc4)c4ccc(OC)cc4)cc3)cc2)cc1 [2^+⋅]
3 | 13.34 (≈ 9880 µg/mL) | 13 (≈ 9630 µg/mL) | 0.41 | 3 × 10^8 | 5448 | 4018 | 12849 |  | Cc1ccc(C(F)(F)F)cc1N(c1ccc(N(c2cc(C(F)(F)F)ccc2C)c2cc(C(F)(F)F)ccc2C)cc1)c1cc(C(F)(F)F)ccc1C [3^+⋅]
4 |  | 13 (≈ 10600 µg/mL) | 0.53 | 5 × 10^2 | 4362 | 2519 | 8238 |  | Cc1ccc(C(F)(F)F)cc1N(c1ccc(-c2ccc(N(c3cc(C(F)(F)F)ccc3C)c3cc(C(F)(F)F)ccc3C)cc2)cc1)c1cc(C(F)(F)F)ccc1C [4^+⋅]
